In PubChem BioAssay AID1996:
Converted amounts (≈) assume the structure as drawn.

settings: buffer; pH 7.4; 200.0 µM

| Structure (SMILES) | solubility kinetic |
| --- | --- |
| COc1ccc(-n2c(-c3ccccc3)nc3ccccc3c2=O)cc1 | 3.3 µg/mL (≈ 10 µM) |
| Cc1nc(Nc2ccc3c(c2)OCCO3)c2c(C)c(C)sc2n1 | 3.6 µg/mL (≈ 11 µM) |
| CCOC(=O)c1cncc(C#CCO)c1 | > 30.8 µg/mL |
| Cc1ccc2c(c1)Cc1nc3ccccc3nc1-2 | 1.9 µg/mL (≈ 8.18 µM) |
| CNC(=O)c1sc(-c2cccs2)nc1C | > 35.7 µg/mL |
| Cc1ccc(C)c(NC(=O)C(CC(=O)O)C2CCCO2)c1 (stereo not given) | 40.1 µg/mL (≈ 138 µM) |
| CC(C)NC(=O)N1CCC(c2nc3ccccc3s2)CC1 | > 45.5 µg/mL |
| O=C(OCc1ccc([N+](=O)[O-])cc1)c1cnc(Cl)c(Cl)c1 | 0.4 µg/mL (≈ 1.22 µM) |
| CC(=O)NCCc1c[nH]c2ccc(O)cc12 | > 32.7 µg/mL |
| COc1ccc(N2CCN(C(=O)Cc3ccc(C)cc3)CC2)cc1 | 43.9 µg/mL (≈ 135 µM) |
| NCCSc1c(-c2ccc(Cl)cc2)[nH]c2ccccc12 | > 45.4 µg/mL |
| Cn1c(=O)c2c(nc(SCc3ccccc3F)n2C)n(C)c1=O | 6.2 µg/mL (≈ 18.5 µM) |
| O=C(Nc1ccc(F)cc1)Nc1csc2ccccc12 | 0.5 µg/mL (≈ 1.75 µM) |
| CCCCCn1cnnc1SCC(=O)c1ccc2c(c1)OCO2 | > 50 µg/mL |
| CC(C)(C)OC(=O)NCCC(=O)N/N=C/c1cccc2cccnc12 | > 51.4 µg/mL |
| Cc1ccc(S(=O)(=O)N2CCOCC2)cc1C(=O)OCC(=O)NC1CCCC1 | > 61.6 µg/mL |
| O=C1c2cccnc2C(=O)N1CNc1ccc(Cl)cc1 | 34.5 µg/mL (≈ 120 µM) |
| O=C(CCCOc1ccc(Cl)cc1Cl)NCc1ccncc1 | 43.6 µg/mL (≈ 129 µM) |
| Cc1ccc(-c2nc3ncccc3o2)cc1N | > 33.8 µg/mL |
| COc1ccc2c(c1)c(C(C)=O)c(C)n2Cc1ccco1 | 36.7 µg/mL (≈ 130 µM) |

| Structure (SMILES) | solubility kinetic |
| --- | --- |
| Cc1cc2oc(=O)cc(CN(C)Cc3cccc(F)c3)c2cc1C | 1.2 µg/mL (≈ 3.69 µM) |
| CC(C)(C)c1ccc(C(=O)Nc2ccc(Oc3cccnc3)nc2)cc1 | 14.1 µg/mL (≈ 40.6 µM) |
| Cc1c(C)c(C)c(S(=O)(=O)NCCc2ccncc2)c(C)c1C | 2 µg/mL (≈ 6.02 µM) |
| Cc1cc[n+](CC(=O)Nc2cccc(C)c2)cc1.[Cl-] | > 41.5 µg/mL |
| CC(NC(=O)CN(c1ccc(Br)cc1)S(C)(=O)=O)c1ccccc1 (stereo not given) | > 61.7 µg/mL |
| Cc1cc(N2CCN(c3ncccn3)CC2)nc2c(C)cccc12 | 0.2 µg/mL (≈ 0.626 µM) |
| CC(C)c1cccc(OCCN2CCCC2)c1 | 22.9 µg/mL (≈ 98.1 µM) |
| COc1ccc(Cl)cc1NC(=S)Nc1ccc(Cl)cn1 | 0.2 µg/mL (≈ 0.609 µM) |
| NC(=O)COC(=O)c1cccnc1Nc1ccccc1F | 36.1 µg/mL (≈ 125 µM) |
| CC(=O)Nc1ccc(S(=O)(=O)NCC(=O)OCC(=O)c2ccc[nH]2)cc1 | > 56.9 µg/mL |
| CCC1CN(C(=O)NCc2ccc(F)cc2)c2cc(C)ccc2O1 (stereo not given) | 4.3 µg/mL (≈ 13.1 µM) |
| Cc1ccc(-c2cc(C(=O)NCC(c3ccccc3)N(C)C)c3ccccc3n2)o1 (stereo not given) | 31.1 µg/mL (≈ 77.8 µM) |
| Cc1ccccc1NC(=O)NCc1cccnc1 | > 36.2 µg/mL |
| CC(=O)Nc1cccc(C(=O)OCCCOc2ccc(F)cc2)c1 | 2.6 µg/mL (≈ 7.85 µM) |
| CCOc1ccc(S(=O)(=O)N2CCCCC2)c(C)c1C | 9.7 µg/mL (≈ 32.6 µM) |
| CCC(=NCCc1ccc(OC)c(OC)c1)C1=C(O)CC(C)(C)CC1=O | 47.3 µg/mL (≈ 132 µM) |
| Cc1ccc(NC(=O)C[n+]2ccccc2)cc1C.[Cl-] | > 41.5 µg/mL |
| CC1CCC2C(C1)Nc1c(C(=O)O)cccc1C2(C)C (stereo not given) | > 41 µg/mL |
| COc1ccc(CNc2nc(NC(C)=O)nn2-c2ccccc2)cc1 | > 50.6 µg/mL |
| O=C(NC(=S)N1CCN(C/C=C/c2ccccc2)CC1)c1cccnc1 | > 55 µg/mL |

| Structure (SMILES) | solubility kinetic |
| --- | --- |
| O=C(COC(=O)c1cccs1)Nc1ccccc1Cl | 2.3 µg/mL (≈ 7.78 µM) |
| Cc1noc(C)c1C(=O)Nc1nc(-c2ccc(F)c(F)c2)cs1 | 4.8 µg/mL (≈ 14.3 µM) |
| CC(NC(=O)c1ccc(F)cc1F)C1CC2CCC1C2 (stereo not given) | 12.7 µg/mL (≈ 45.5 µM) |
| N#CCc1ccc(OC(=O)c2ccncc2)cc1 | > 35.7 µg/mL |
| CCOc1cccc(C=NCCc2ccc(OC)c(OC)c2)c1O | 45.4 µg/mL (≈ 138 µM) |
| CC(C)c1ccc(OCC(=O)N2CCc3ccccc3C2)cc1 | 9 µg/mL (≈ 29.1 µM) |
| CC(NC(=S)NC1CCCCC1)c1ccccc1 (stereo not given) | 36.1 µg/mL (≈ 138 µM) |
| CCCc1nc2ccccc2n1C(=S)SC | 12.3 µg/mL (≈ 49.1 µM) |
| O=C(c1cc2ccccc2o1)N1CCN(c2ncccn2)CC1 | > 46.3 µg/mL |
| O=C(COc1ccccc1Cl)NC1CC1 | > 33.9 µg/mL |
| C=CCOc1ccc(C2NC(=O)c3ccccc3O2)cc1OCC (stereo not given) | 2.6 µg/mL (≈ 7.99 µM) |
| N#Cc1ccc(C(=O)N(Cc2ccccc2)c2ccccc2)cc1 | 26.4 µg/mL (≈ 84.5 µM) |
| CN(Cc1cccc([N+](=O)[O-])c1)Cc1cccc2ccccc12 | < 0.3 µg/mL |
| NC(=O)NC(=O)COC(=O)CC12CC3CC(CC(C3)C1)C2 | 29.2 µg/mL (≈ 99.2 µM) |
| Cl.c1ccc(Cc2ccc(OCCn3ccnc3)cc2)cc1 | 41.3 µg/mL |
| Cc1ccc(C(=O)CSc2nc(O)cc(=O)[nH]2)cc1C | > 43.6 µg/mL |
| CC(NS(=O)(=O)c1ccccc1Cl)C1CC2CCC1C2 (stereo not given) | 1.1 µg/mL (≈ 3.5 µM) |
| COc1cc([N+](=O)[O-])ccc1NC(=O)CN1CCCC1 | 37.2 µg/mL (≈ 133 µM) |
| CSc1ccc(C2NC(=O)CCC2[N+](=O)[O-])cc1 (stereo not given) | > 39.9 µg/mL |
| CC(=O)Nc1ccc(NC(=O)C(C)OC(=O)c2ccc(S(=O)(=O)N3CCCCC3)cc2)cc1 (stereo not given) | 6.4 µg/mL (≈ 13.5 µM) |

Continued, values first:

| solubility kinetic | Structure (SMILES) |
| --- | --- |
| 39.9 µg/mL (≈ 130 µM) | CCN(C(=S)Nc1cccnc1)c1cccc2ccccc12 |
| 45 µg/mL (≈ 139 µM) | C/C(Cl)=C/Cn1c(N2CCCC2)nc2c1c(=O)[nH]c(=O)n2C |
| 54.7 µg/mL (≈ 130 µM) | O=C(NCCCN1CCCC1=O)c1ccccc1OCc1ccc(Cl)cc1Cl |
| 33.8 µg/mL (≈ 106 µM) | CCCCNC(=O)CN1C(=O)NC(CCc2ccccc2)C1=O (stereo not given) |
| 1.5 µg/mL (≈ 4.02 µM) | CCOC(=O)c1c(NC(=O)Nc2ccc(C)cc2)sc2c1CCN(C)C2 |
| 6.9 µg/mL (≈ 18.9 µM) | COc1cc2c(cc1OC)CN(C(=O)c1ccc3[nH]c(C)c(C)c3c1)CC2 |
| 47.3 µg/mL (≈ 147 µM) | CC(=O)N/C(=C\c1ccccc1)C(=O)OC/C=C/c1ccccc1 |
| < 0.2 µg/mL | Cc1c(-c2nc(-c3ccc(C(C)(C)C)cc3)no2)n(C)oc1=O |
| > 43.6 µg/mL | O=C(CCS(=O)(=O)c1ccccc1)Nc1ccccn1 |
| 35.7 µg/mL (≈ 133 µM) | O=C(NC(=S)N1CCCC1)c1ccccc1Cl |
| 43 µg/mL (≈ 147 µM) | CN(CC(=O)Nc1ccc(F)cc1)CC(=O)N1CCCC1 |
| 3.4 µg/mL (≈ 10.9 µM) | O=[N+]([O-])c1ccc(CS(=O)(=O)c2ccc(Cl)cc2)cc1 |
| 36.6 µg/mL (≈ 150 µM) | O=C(CN1CCCCC1)N1CCc2ccccc21 |
| > 38.6 µg/mL | COc1ccc(NC(=O)NCc2cccnc2)cc1 |
| > 51.9 µg/mL | CN1CCN(C(=O)c2cccn(Cc3cccc(Cl)c3)c2=O)CC1 |
| > 40.4 µg/mL | CC(C)Cc1nnc(NC(=O)C2=COCCO2)s1 |
| 6.8 µg/mL (≈ 20.8 µM) | O=C(Nc1ccccc1OC(F)(F)F)c1ccc([N+](=O)[O-])cc1 |
| < 0.2 µg/mL | Cc1cc(C)nc(N2CCCC(C(=O)Nc3cccc(Cl)c3)C2)n1 (stereo not given) |
| 2.3 µg/mL (≈ 6.47 µM) | CCOc1ccc(Nc2ccc(N3C(=O)CCC3=O)cc2[N+](=O)[O-])cc1 |
| 39.7 µg/mL (≈ 124 µM) | Cc1ccc(OC(C)C(=O)Nc2ccc(F)cc2)c([N+](=O)[O-])n1 (stereo not given) |

| solubility kinetic | Structure (SMILES) |
| --- | --- |
| > 37.2 µg/mL | COc1ccc(NC(=O)C2CCCNC2=O)cc1 (stereo not given) |
| 0.6 µg/mL (≈ 1.82 µM) | Cc1sc(NC(=O)c2c(F)cccc2F)nc1-c1ccccc1 |
| > 40.9 µg/mL | Cn1c(=O)n(Cc2ccccc2Cl)c2ccccc21 |
| > 42.5 µg/mL | O=S(=O)(c1cccc2nsnc12)N1CCCCC1 |
| 20.6 µg/mL (≈ 102 µM) | c1ccc(-c2noc(C3CCC3)n2)nc1 |
| 3.8 µg/mL (≈ 8.87 µM) | Cc1ccc(S(=O)(=O)NCC(=O)OCCOc2ccc(Br)cc2)cc1 |
| 12.8 µg/mL (≈ 37 µM) | COc1ccccc1N1C(=O)c2ccccc2NC1c1ccc(O)cc1 (stereo not given) |
| > 39.8 µg/mL | OCCN1CCN(C(=S)Nc2ccccc2)CC1 |
| 1.5 µg/mL (≈ 4.52 µM) | C/C(=N/OC(=O)c1ccccc1Br)c1ccc(C)cc1 |
| > 47.9 µg/mL | O=C1CN(S(=O)(=O)c2cccc(Br)c2)CCN1 |
| > 65 µg/mL | O=C(Nc1ccc(Cl)c(Cl)c1)c1ccccc1NC(=O)C1CC=CCC1C(=O)O (stereo not given) |
| < 0.2 µg/mL | O=c1[nH]c2ccccc2nc1C(Nc1ccccc1)c1ccccc1 (stereo not given) |
| 9.8 µg/mL (≈ 30.4 µM) | O=C(NCCc1ccccc1)c1coc(=O)c(Br)c1 |
| > 41.3 µg/mL | Cc1cc(C(=O)N(CCC#N)Cc2cccs2)no1 |
| 34.3 µg/mL (≈ 137 µM) | Nc1ncnc(Oc2ccccc2F)c1[N+](=O)[O-] |
| 22.2 µg/mL (≈ 71.5 µM) | COc1cccc(NC(=O)c2cc3ccccc3o/c2=N\O)c1 |
| > 40.8 µg/mL | COCCNC(=O)C12CC3CC(CC(Cl)(C3)C1)C2 |
| 35.8 µg/mL (≈ 115 µM) | O=C(/C=C/c1ccccc1F)N1CCN(c2ccccn2)CC1 |
| 9.1 µg/mL (≈ 27.7 µM) | O=C(c1ccc(-c2ccc([N+](=O)[O-])cc2)o1)N1CCCCCCC1 |
| > 48.1 µg/mL | Cc1ccccc1NC(=O)c1cccc(NC(=O)c2ccco2)c1 |

| solubility kinetic | Structure (SMILES) |
| --- | --- |
| 8.6 µg/mL (≈ 26.6 µM) | O=C(CSc1ccc(F)cc1)NCCc1ccc(Cl)cc1 |
| > 56.9 µg/mL | C[C@@H](C(=O)OCC(=O)c1ccc(F)c(F)c1)N1C(=O)C2CCCCC2C1=O (stereo not given in full) |
| 17 µg/mL (≈ 56.3 µM) | O=c1c2ccccc2ncn1-c1ccc([N+](=O)[O-])cc1Cl |
| 44.3 µg/mL (≈ 128 µM) | C=CCN1C(=O)C(CC(=O)NCC)SC1=Nc1ccccc1CC (stereo not given) |
| < 0.8 µg/mL | O=C(CNC(=O)c1ccc(Cl)cc1)c1ccc(Br)cc1 |
| < 0.2 µg/mL | Cn1cc(/C=C(\C#N)C(=O)Nc2ccccc2O)c2ccccc21 |
| > 47.6 µg/mL | COC(=O)Cc1c(O)ccn(Cc2ccc3c(c2)OCO3)c1=O |
| > 46.9 µg/mL | CCOC(=O)c1cc(S(=O)(=O)NCc2ccco2)cn1C |
| > 50 µg/mL | OC(CNCC1COc2ccccc2O1)COc1ccccc1F (stereo not given) |
| 9.7 µg/mL (≈ 21.6 µM) | NS(=O)(=O)c1cccc(NC(=O)COC(=O)c2cc([N+](=O)[O-])ccc2N2CCCC2)c1 |
| > 38.3 µg/mL | COc1ccc(C(=O)N/N=C/c2cccnc2)cc1 |
| > 44.1 µg/mL | C(=N\N1CCOCC1)/c1ccsc1.O=P(O)(O)O |
| 3.3 µg/mL (≈ 9.29 µM) | CN1CCN(C(=S)c2ccc(-c3cc(Cl)ccc3Cl)o2)CC1 |
| 0.5 µg/mL (≈ 1.65 µM) | O=C(Nc1ccccc1)c1c2c(nc3ccccc13)CCCC2 |
| > 44.3 µg/mL | COc1cccc(NC(=O)c2ccccc2C(F)(F)F)c1 |
| 5.5 µg/mL (≈ 20.3 µM) | C=CCNC(=S)N1CCc2[nH]c3ccccc3c2C1 |
| 0.6 µg/mL (≈ 1.74 µM) | CCN(C(=O)c1cccs1)c1nc(-c2ccc(OC)cc2)cs1 |
| > 45.8 µg/mL | CCCNC(=O)C/C(C)=N/NC(=O)C(=O)Nc1ccccn1 |
| > 52.3 µg/mL | COc1ccc(/C=C/C(=O)O)cc1S(=O)(=O)NCc1cccnc1 |
| > 47 µg/mL | Cc1cccc(N2C(=O)CC(Sc3nccc(C)n3)C2=O)c1 (stereo not given) |
